Test [1] addresses PDGFR-β (Homo sapiens (Human), UniProt P09619). Nature of the test: PDGFR-β tyrosine kinase inhibitory action (HTRF KinEASE-TK). The class given is biochemical. The conditions noted are these: PDGFR-β enzyme 1 ng/μL, 30° C. for 30 minutes; read-out: PDGF-β IC50. The method in brief:
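Recombinant PDGFR-β at 1 ng/μL final with TK substrate-3-biotin in a substrate solution containing 0.6 μM ATP; buffer 50 mM HEPES pH 7.0, 5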
On the technique in general: In TR-FRET formats the signal depends on donor and acceptor labels being close together.

The target in test [2] is TEL-PDGFRβ fusion gene transfected cells (Ba/F3). Kind of test: Suppression of proliferation of TEL-PDGFRβ fusion gene transfected Ba/F3 cells. The class given is cell-based, human. As to conditions: TEL-PDGFRβ expressing Ba/F3 cells, 72 hours, final concentration 0.1 to 10,000 nM; read-out: PDGFR β/BaF3 proliferation inhibition (IC50). An excerpt:
2. Preparation of Test Substance
4. Analysis of Measurement Results

Test [3] deals with pulmonary arterial smooth muscle cells. Kind of test: Suppression of proliferation of pulmonary arterial smooth muscle cells (PDGF-BB stimulation, BrdU). The class given is cell-based. The conditions noted are these: PASMC, 24 h; healthy human derived pulmonary arterial smooth muscle cells; human PDGF-BB 10 ng/mL stimulation; BrdU uptake after 1 day; test substance final concentration 3 to 10,000 nM; read-out: Human normal PASMC proliferation suppression (PDGF stimulation_IC50). The procedure, abridged: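 Healthy human pulmonary arterial smooth muscle cells, serum-starved a day in 0.1% FBS medium, were treated with compound at final 3 to 10,000 nM plus human PDGF-BB (final 10 ng/mL) and BrdU. After 1 day of culture, BrdU uptake was measured with an anti-BrdU antibody.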

The target in test [4] is TEL-KIT fusion gene transfected cells (Ba/F3). Kind of test: Suppression of proliferation of TEL-KIT fusion gene transfected Ba/F3 cells.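 Further: viable cells quantified via formazan from tetrazolium reduction, inhibition scaled with 0.1% DMSO control as 0% and medium-only blank as 100%, IC50 from two-parameter logistic fit.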 The conditions noted are these: read-out: KIT/BaF3 proliferation inhibition (IC50); TEL-KIT expressing Ba/F3 cells, 72 hours, final concentration 0.1 to 10,000 nM.
Sequence of TEL-KIT fusion gene transfected cells (Ba/F3) (P10721 26-976 limits assumed, change not shown): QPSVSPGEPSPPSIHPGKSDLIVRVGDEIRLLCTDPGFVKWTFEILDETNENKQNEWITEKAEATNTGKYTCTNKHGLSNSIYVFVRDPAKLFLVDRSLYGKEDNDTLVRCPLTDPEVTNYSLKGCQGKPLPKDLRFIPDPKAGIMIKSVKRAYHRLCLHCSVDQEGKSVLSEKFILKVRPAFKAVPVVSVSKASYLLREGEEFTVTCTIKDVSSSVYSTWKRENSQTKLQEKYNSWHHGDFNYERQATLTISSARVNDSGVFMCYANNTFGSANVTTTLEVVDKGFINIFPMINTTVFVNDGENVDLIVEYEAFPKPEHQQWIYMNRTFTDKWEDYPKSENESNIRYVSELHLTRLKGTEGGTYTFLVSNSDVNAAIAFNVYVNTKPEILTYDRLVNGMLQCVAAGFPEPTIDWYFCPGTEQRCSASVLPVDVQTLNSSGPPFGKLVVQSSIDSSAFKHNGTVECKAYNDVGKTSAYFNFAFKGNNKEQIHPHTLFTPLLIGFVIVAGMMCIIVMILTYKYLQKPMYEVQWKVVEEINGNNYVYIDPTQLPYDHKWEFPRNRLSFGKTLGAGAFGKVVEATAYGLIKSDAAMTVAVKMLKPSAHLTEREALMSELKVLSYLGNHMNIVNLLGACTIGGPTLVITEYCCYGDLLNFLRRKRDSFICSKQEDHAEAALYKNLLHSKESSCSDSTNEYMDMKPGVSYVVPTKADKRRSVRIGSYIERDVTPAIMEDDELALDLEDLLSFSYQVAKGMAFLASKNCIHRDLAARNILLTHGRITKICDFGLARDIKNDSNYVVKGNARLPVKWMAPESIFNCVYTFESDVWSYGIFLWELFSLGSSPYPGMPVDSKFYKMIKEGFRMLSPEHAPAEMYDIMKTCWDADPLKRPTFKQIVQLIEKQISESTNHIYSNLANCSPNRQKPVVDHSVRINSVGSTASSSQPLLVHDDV

The structures appear in SMILES notation. Where only a bound is given, the exact number is not on record here.

Sequence of PDGFR-β (P09619 33-1106): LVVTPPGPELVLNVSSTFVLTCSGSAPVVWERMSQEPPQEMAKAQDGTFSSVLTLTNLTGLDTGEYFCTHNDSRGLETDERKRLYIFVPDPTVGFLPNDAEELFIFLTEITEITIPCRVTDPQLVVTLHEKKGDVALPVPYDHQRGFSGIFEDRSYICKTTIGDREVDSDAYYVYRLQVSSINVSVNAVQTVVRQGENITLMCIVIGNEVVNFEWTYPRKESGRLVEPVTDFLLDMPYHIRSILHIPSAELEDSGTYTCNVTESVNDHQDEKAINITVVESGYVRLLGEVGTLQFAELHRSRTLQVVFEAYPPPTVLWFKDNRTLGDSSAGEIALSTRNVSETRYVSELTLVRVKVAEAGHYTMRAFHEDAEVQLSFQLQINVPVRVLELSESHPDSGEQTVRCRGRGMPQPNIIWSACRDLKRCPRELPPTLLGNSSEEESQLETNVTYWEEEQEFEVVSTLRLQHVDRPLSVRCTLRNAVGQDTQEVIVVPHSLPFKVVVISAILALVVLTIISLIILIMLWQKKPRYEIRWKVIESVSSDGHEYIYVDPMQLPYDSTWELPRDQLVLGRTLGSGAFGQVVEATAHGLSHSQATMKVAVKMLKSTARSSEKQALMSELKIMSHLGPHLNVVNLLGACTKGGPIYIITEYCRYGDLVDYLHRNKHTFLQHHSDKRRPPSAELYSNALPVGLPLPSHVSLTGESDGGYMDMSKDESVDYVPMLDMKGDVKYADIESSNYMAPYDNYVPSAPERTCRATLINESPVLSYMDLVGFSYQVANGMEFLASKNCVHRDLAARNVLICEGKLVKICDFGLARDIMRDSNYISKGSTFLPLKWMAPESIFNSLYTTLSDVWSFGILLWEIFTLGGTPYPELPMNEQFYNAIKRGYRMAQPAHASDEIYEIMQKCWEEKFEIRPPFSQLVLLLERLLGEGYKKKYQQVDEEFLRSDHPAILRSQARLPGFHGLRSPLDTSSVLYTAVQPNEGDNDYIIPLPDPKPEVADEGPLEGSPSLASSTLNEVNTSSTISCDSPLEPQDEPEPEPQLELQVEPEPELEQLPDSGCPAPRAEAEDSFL
Sequence of TEL-PDGFRβ fusion gene transfected cells (Ba/F3) (P09619 33-1106 limits assumed, change not shown): as the sequence (P09619 33-1106) above

`O=C(Nc1cc(C(=O)N[C@H]2CCCC[C@@H]2O)ccc1Cl)c1cncc(OCC2CC2)c1` [Example 44, N-(2-chloro-5-{[(1S,2S)-2-hydroxycyclohexyl]carbamoyl}phenyl)-5-(cyclopropylmethoxy)pyridine-3-carboxamide]: the IC50 in test [1] is 190 nM; in test [2], 21 nM; in test [3] it was 140 nM; in test [4], 940 nM.
Turning to `Cc1ccc(C(=O)N[C@H]2CCCC[C@@H]2O)cc1NC(=O)c1cnc2sccn12` [Example 45, N-(5-{[(1S,2S)-2-hydroxycyclohexyl]carbamoyl}-2-methylphenyl)imidazo[2,1-b][1,3]thiazole-5-carboxamide], the IC50 stood at 15 nM in test [1], 0.8 nM in test [2], 56 nM in test [3] and 92 nM in test [4].
As to `Cc1c(F)cc(C(=O)N[C@H]2CCCC[C@@H]2O)cc1NC(=O)c1cncc(OCC2CC2)c1` [Example 46, 5-(cyclopropylmethoxy)-N-(3-fluoro-5-{[(1S,2S)-2-hydroxycyclohexyl]carbamoyl}-2-methylphenyl)pyridine-3-carboxamide], the IC50 is 77 nM in test [1], 17 nM in test [2], 370 nM in test [3] and 410 nM in test [4].
As for `Cc1ccc(C(=O)N[C@H]2CCCC[C@@H]2O)cc1NC(=O)c1cncc(OC2CC(F)(F)C2)c1` [Example 47, 5-[(3,3-difluorocyclobutyl)oxy]-N-(5-{[(1S,2S)-2-hydroxycyclohexyl]carbamoyl}-2-methylphenyl)pyridine-3-carboxamide], the IC50 in test [1] amounted to 390 nM; in test [2], 75 nM; in test [3], 350 nM; in test [4] it was 7000 nM.
The like results for `Cc1c(F)cc(C(=O)N[C@H]2CCCC[C@@H]2O)cc1NC(=O)c1cnc(CC2CC2)s1` [Example 48, 2-(cyclopropylmethyl)-N-(3-fluoro-5-{[(1S,2S)-2-hydroxycyclohexyl]carbamoyl}-2-methylphenyl)-1,3-thiazole-5-carboxamide] were, in that order, 120 nM, 16 nM, 310 nM and 650 nM.
The matching figures for `O=C(N[C@H]1CCCC[C@@H]1O)c1ccc(Cl)c(C#Cc2cncc(Br)c2)c1` [Example 57, 3-[(5-bromopyridin-3-yl)ethynyl]-4-chloro-N-[(1S,2S)-2-hydroxycyclohexyl]benzamide]: 51 nM, 440 nM, 420 nM and 6900 nM.
The like results for `O=C(N[C@H]1CCCC[C@@H]1O)c1ccc(Cl)c(C#Cc2cncc(-c3ccccc3)c2)c1` [Example 58, 4-chloro-N-[(1S,2S)-2-hydroxycyclohexyl]-3-[(5-phenylpyridin-3-yl)ethynyl]benzamide] were, in that order, 12 nM, 110 nM, 57 nM and 1800 nM.
In the case of `Cc1cncc(C#Cc2cc(C(=O)N[C@H]3CCCC[C@@H]3O)ccc2C)c1` [Example 59, N-[(1S,2S)-2-hydroxycyclohexyl]-4-methyl-3-[(5-methylpyridin-3-yl)ethynyl]benzamide], the IC50 in test [1] was determined as 210 nM; in test [2], 27 nM; in test [3], 93 nM; in test [4] it was 500 nM.
`Cc1ccc(C(=O)N[C@H]2CCCC[C@@H]2O)cc1C#Cc1cncc(Br)c1` [Example 61, 3-[(5-bromopyridin-3-yl)ethynyl]-N-[(1S,2S)-2-hydroxycyclohexyl]-4-methylbenzamide]: the IC50 was found to be 41 nM in test [1], 18 nM in test [2], 18 nM in test [3] and 840 nM in test [4].
As to `Cc1ccc(C(=O)N[C@H]2CCCC[C@@H]2O)cc1C#Cc1cncc(-c2ncccn2)c1` [Example 62, N-[(1S,2S)-2-hydroxycyclohexyl]-4-methyl-3-{[5-(pyrimidin-2-yl)pyridin-3-yl]ethynyl}benzamide], the IC50 in test [1] came to 6.5 nM; in test [2], 1.7 nM; in test [3], 34 nM; in test [4], 87 nM.
The matching figures for `Cc1ccc(C(=O)N[C@H]2CCCC[C@@H]2O)cc1C#Cc1cncc(-c2cnccn2)c1` [Example 63, N-[(1S,2S)-2-hydroxycyclohexyl]-4-methyl-3-{[5-(pyrazin-2-yl)pyridin-3-yl]ethynyl}benzamide]: 15 nM, 0.8 nM, 10 nM and 240 nM.
For `O=C(N[C@H]1CCCC[C@@H]1O)c1ccc(Cl)c(C#Cc2cncc(-c3ncccn3)c2)c1` [Example 64, 4-chloro-N-[(1S,2S)-2-hydroxycyclohexyl]-3-{[5-(pyrimidin-2-yl)pyridin-3-yl]ethynyl}benzamide], the IC50 in test [1] came to 260 nM; in test [2] it was 5.9 nM; in test [3] it was 92 nM; in test [4] it was 230 nM.
The like results for `Cc1ccc(C(=O)N[C@H]2CCCC[C@@H]2O)cc1C#Cc1ccc(N)nc1` [Example 65, 3-[(6-aminopyridin-3-yl)ethynyl]-N-[(1S,2S)-2-hydroxycyclohexyl]-4-methylbenzamide] were, in that order, 94 nM, 14 nM, 60 nM and 270 nM.
The matching figures for `Cc1ccc(C(=O)N[C@H]2CCCC[C@@H]2O)cc1C#Cc1cncc(-c2ccccn2)c1` [Example 66, 3-[([2,3′-bipyridin]-5′-yl)ethynyl]-N-[(1S,2S)-2-hydroxycyclohexyl]-4-methylbenzamide]: 5.4 nM, 2.5 nM, 30 nM and 100 nM.
As to `Cc1ccc(C(=O)N[C@H]2CCCC[C@@H]2O)cc1C#Cc1cncc(C2CC2)c1` [Example 67, 3-[(5-cyclopropylpyridin-3-yl)ethynyl]-N-[(1S,2S)-2-hydroxycyclohexyl]-4-methylbenzamide], the IC50 amounted to 43 nM in test [1], 5.2 nM in test [2], 120 nM in test [3] and 300 nM in test [4].
The matching figures for `Cc1ccc(C(=O)N[C@H]2CCCC[C@@H]2O)cc1C#Cc1cncc(C2CC2)n1` [Example 68, 3-[(6-cyclopropylpyrazin-2-yl)ethynyl]-N-[(1S,2S)-2-hydroxycyclohexyl]-4-methylbenzamide]: 80 nM, 16 nM, 72 nM and 2000 nM.
The matching figures for `Cc1ccc(C(=O)N[C@H]2CCCC[C@@H]2O)cc1C#Cc1cncc(-c2ccccc2F)n1` [Example 69, 3-{[6-(2-fluorophenyl)pyrazin-2-yl]ethynyl}-N-[(1S,2S)-2-hydroxycyclohexyl]-4-methylbenzamide]: 25 nM, 5.8 nM, 61 nM and 330 nM.
The matching figures for `Cc1ccc(C(=O)N[C@H]2CCCC[C@@H]2O)cc1C#Cc1cncc(-c2cccc(F)c2)n1` [Example 70, 3-{[6-(3-fluorophenyl)pyrazin-2-yl]ethynyl}-N-[(1S,2S)-2-hydroxycyclohexyl]-4-methylbenzamide]: 20 nM, 1.8 nM, 50 nM and 300 nM.
On to `Cc1ccc(C(=O)N[C@H]2CCCC[C@@H]2O)cc1C#Cc1cncc(-c2ccc(F)cc2)n1` [Example 71, 3-{[6-(4-fluorophenyl)pyrazin-2-yl]ethynyl}-N-[(1S,2S)-2-hydroxycyclohexyl]-4-methylbenzamide], for which the IC50 in test [1] worked out at 42 nM; in test [2], 6 nM; in test [3] it was 43 nM; in test [4], 570 nM.
For `Cc1ccc(C(=O)N[C@H]2CCCC[C@@H]2O)cc1Nc1ccnc(-c2cccnc2)n1` [Example 78, N-[(1S,2S)-2-hydroxycyclohexyl]-4-methyl-3-{[2-(pyridin-3-yl)pyrimidin-4-yl]amino}benzamide], the IC50 was found to be 51 nM in test [1], 27 nM in test [2], 150 nM in test [3] and 570 nM in test [4].
The like results for `Cc1ccc(C(=O)N[C@H]2CCCC[C@@H]2O)cc1Nc1ccnc(-c2cncc3ccccc23)n1` [Example 79, N-[(1S,2S)-2-hydroxycyclohexyl]-3-{[2-(isoquinolin-4-yl)pyrimidin-4-yl]amino}-4-methylbenzamide] were, in that order, 120 nM, 46 nM, 170 nM and 2000 nM.
As to `Cc1ccc(C(=O)N[C@@H](CO)[C@@H](O)c2ccccc2)cc1Nc1ccnc(-c2cncc3ccccc23)n1` [Example 80, N-[(1S,2S)-1,3-dihydroxy-1-phenylpropan-2-yl]-3-{[2-(isoquinolin-4-yl)pyrimidin-4-yl]amino}-4-methylbenzamide], the IC50 in test [1] was 120 nM; in test [2], 80 nM; in test [3], 280 nM; in test [4] it was over 10000 nM.
